Reference: patent publication US7935702B2, “Substituted biaryl quinolin-4-ylamine analogues” (Neurogen Corporation, priority 2004, dated 2011)
Where two headings read alike, the source gives them in different places.

Target: T1, human capsaicin receptor (Homo sapiens, UniProt Q8NER1)
T1 construct: expressed in transfected cells
Assay: Calcium mobilization assay, determination of antagonist activity (Example 6)
Format: cell-based
Experimental: A cDNA encoding full length human capsaicin receptor (SEQ ID NO:1, 2 or 3 of U.S. Pat. No. 6,482,611) is subcloned in the plasmid pBK-CMV (Stratagene, La Jolla, Calif.) for recombinant expression in mammalian cells.
Human embryonic kidney (HEK293) cells are transfected with the pBK-CMV expression construct encoding the full length human capsaicin receptor using standard methods. The transfected cells are selected for two weeks in media containing G418 (400 μg/ml) to obtain a pool of stably transfected cells. Independent clones are isolated from this pool by limiting dilution to obtain clonal stable cell lines for use in subsequent experiments.
This Example illustrates representative calcium mobilization assays for use in evaluating test compounds for agonist and antagonist activity.
Cells transfected with expression plasmids (as described in Example 4) and thereby expressing human capsaicin receptor are seeded and grown to 70-90% confluency in FALCON black-walled, clear-bottomed 96-well plates (#3904, BECTON-DICKINSON, Franklin Lakes, N.J.). The culture medium is emptied from the 96 well plates and FLUO-3 AM calcium sensitive dye (Molecular Probes, Eugene, Oreg.) is added to each well (dye solution: 1 mg FLUO-3 AM, 440 μL DMSO and 440 μl 20% pluronic acid in DMSO, diluted 1:250 in Krebs-Ringer HEPES (KRH) buffer (25 mM HEPES, 5 mM KCl, 0.96 mM NaH2PO4, 1 mM MgSO4, 2 mM CaCl2, 5 mM glucose, 1 mM probenecid, pH 7.4), 50 μl diluted solution per well). Plates are covered with aluminum foil and incubated at 37° C. for 1-2 hours in an environment containing 5% CO2. After the incubation, the dye is emptied from the plates, and the cells are washed once with KRH buffer, and resuspended in KRH buffer.
To measure the ability of a test compound to agonize or antagonize a calcium mobilization response in cells expressing capsaicin receptors to capsaicin or other vanilloid agonist, the EC50 of the agonist capsaicin is first determined. An additional 20 μl of KRH buffer and 1 μl DMSO is added to each well of cells, prepared as described above. 100 μl capsaicin in KRH buffer is automatically transferred by the FLIPR instrument to each well. Capsaicin-induced calcium mobilization is monitored using either FLUOROSKAN ASCENT (Labsystems; Franklin, Mass.) or FLIPR (fluorometric imaging plate reader system; Molecular Devices, Sunnyvale, Calif.) instruments. Data obtained between 30 and 60 seconds after agonist application are used to generate an 8-point concentration response curve, with final capsaicin concentrations of 1 nM to 3 μM. KALEIDAGRAPH software (Synergy Software, Reading, Pa.) is used to fit the data to the equation: y=a*(1/(1+(b/x)^c)) to determine the 50% excitatory concentration (EC50) for the response. In this equation, y is the maximum fluorescence signal, x is the concentration of the agonist or antagonist (in this case, capsaicin), a is the Emax, b corresponds to the EC50 value and c is the Hill coefficient. Determination of Agonist Activity
Test compounds are dissolved in DMSO, diluted in 20 μl KRH buffer so that the final concentration of test compounds in the assay well is between 1 μM and 5 μM, and added to cells prepared as described above. The 96 well plates containing prepared cells and test compounds are incubated in the dark, at room temperature for 0.5 to 6 hours. It is important that the incubation not continue beyond 6 hours. Just prior to determining the fluorescence response, 100 μl capsaicin in KRH buffer at twice the EC50 concentration determined as described above is automatically added by the FLIPR instrument to each well of the 96 well plate for a final sample volume of 200 μl and a final capsaicin concentration equal to the EC50. The final concentration of test compounds in the assay wells is between 1 μM and 5 μM. […]

[1] = Table I, IC50 determined as described in Example 6, read-out: IC50
[2] = cells expressing human capsaicin receptor, capsaicin at EC50, read-out: IC50 determined as described in Example 6

T1 sequence (Q8NER1 whole entry): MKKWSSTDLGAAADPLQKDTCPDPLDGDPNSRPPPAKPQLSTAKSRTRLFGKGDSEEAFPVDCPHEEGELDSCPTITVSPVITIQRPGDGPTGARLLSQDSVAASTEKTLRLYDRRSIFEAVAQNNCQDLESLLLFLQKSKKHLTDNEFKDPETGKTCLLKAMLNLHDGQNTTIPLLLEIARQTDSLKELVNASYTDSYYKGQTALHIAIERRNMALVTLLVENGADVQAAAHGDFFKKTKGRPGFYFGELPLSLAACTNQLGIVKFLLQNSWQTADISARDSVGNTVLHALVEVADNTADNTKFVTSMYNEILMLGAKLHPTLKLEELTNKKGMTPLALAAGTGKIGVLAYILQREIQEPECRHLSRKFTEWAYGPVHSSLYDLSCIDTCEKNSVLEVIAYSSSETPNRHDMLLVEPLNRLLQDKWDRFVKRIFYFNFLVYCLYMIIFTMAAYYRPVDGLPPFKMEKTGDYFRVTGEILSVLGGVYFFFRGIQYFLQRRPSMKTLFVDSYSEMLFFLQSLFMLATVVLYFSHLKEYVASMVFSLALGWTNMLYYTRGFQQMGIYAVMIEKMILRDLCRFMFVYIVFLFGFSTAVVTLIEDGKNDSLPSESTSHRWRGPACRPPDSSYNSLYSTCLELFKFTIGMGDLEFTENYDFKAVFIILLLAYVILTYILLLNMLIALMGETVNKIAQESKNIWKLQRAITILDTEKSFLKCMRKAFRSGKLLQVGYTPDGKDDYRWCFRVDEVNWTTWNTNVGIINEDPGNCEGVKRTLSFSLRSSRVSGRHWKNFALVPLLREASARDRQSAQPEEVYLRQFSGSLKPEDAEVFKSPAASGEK

IC50 [1] [nM]	IC50 [2] [nM]	SMILES
< 1000	–	N#Cc1ccc(C(F)(F)F)c(-c2ccc3c(Nc4ccc(C(F)(F)F)cn4)ccnc3n2)n1 [compound 24, 5-Trifluoromethyl-6-[5-(5-trifluoromethyl-pyridin-2-ylamino)-[1,8]naphthyridin-2-yl]-pyridine-2-carbonitrile]
–	< 1000	COc1ccc(C(F)(F)F)c(-c2ccc3c(Nc4ncc(C(F)(F)F)cn4)ccnc3n2)n1 [Compound 6, [7-(6-Methoxy-3-trifluoromethyl-pyridin-2-yl)-[1,8]naphthyridin-4-yl]-(5-trifluoromethyl-pyrimidin-2-yl)-amine]
< 1000	–	N#Cc1cnc(-c2cnc3c(Nc4ccc(C(F)(F)F)cn4)ccnc3n2)c(C(F)(F)F)c1 [compound 32, 5-Trifluoromethyl-6-[8-(5-trifluoromethyl-pyridin-2-ylamino)-pyrido[2,3-b]pyrazin-3-yl]-nicotinonitrile]
–	< 1000	N#Cc1cnc(-c2ccc3c(Nc4ccc(C(F)(F)F)cn4)ccnc3n2)c(C(F)(F)F)c1 [Compound 7, 5-Trifluoromethyl-6-[5-(5-trifluoromethyl-pyridin-2-ylamino)-[1,8]naphthyridin-2-yl]-nicotinonitrile]
–	< 1000	Cc1cc(F)cnc1-c1ccc2c(Nc3ccc(C(F)(F)F)cn3)ccnc2n1 [Compound 2, 7-(5-Fluoro-3-methylpyridin-2-yl)-N-(5-(trifluoromethyl)ipyridin-2-yl)-1,8-naphthyridin-4-amine]
< 1000	–	O=C(O)c1ccc(C(F)(F)F)c(-c2ccc3c(Nc4ccc(C(F)(F)F)cn4)ccnc3n2)n1 [compound 26, 5-Trifluoromethyl-6-[5-(5-trifluoromethyl-pyridin-2-ylamino)-[1,8]naphthyridin-2-yl]-pyridine-2-carboxylic acid]
< 1000	–	NC(=O)c1ccc(C(F)(F)F)c(-c2ccc3c(Nc4ccc(C(F)(F)F)cn4)ccnc3n2)n1 [compound 25, 5-Trifluoromethyl-6-[5-(5-trifluoromethyl-pyridin-2-ylamino)-[1,8]naphthyridin-2-yl]-pyridine-2-carboxylic acid amide]
< 1000	–	FC(F)(F)c1ccc(Nc2ccnc3nc(-c4nc(Cl)ccc4C(F)(F)F)ccc23)nc1 [compound 23, [7-(6-Chloro-3-trifluoromethyl-pyridin-2-yl)-[1,8]naphthyridin-4-yl]-(5-trifluoromethyl-pyridin-2-yl)-amine]
< 1000	–	NC(=O)c1ccc(-c2cnc3c(Nc4ccc(C(F)(F)F)cn4)ccnc3n2)c(C(F)(F)F)c1 [compound 37, 3-(trifluoromethyl)-4-(8-{[5-(trifluoromethyl)pyridin-2-yl]amino}pyrido[2,3-b]pyrazin-3-yl)benzamide]
< 1000	–	O=C(O)c1cnc(-c2ccc3c(Nc4ccc(C(F)(F)F)cn4)ccnc3n2)c(C(F)(F)F)c1 [compound 22, 5-Trifluoromethyl-6-[5-(5-trifluoromethyl-pyridin-2-ylamino)-[1,8]naphthyridin-2-yl]-nicotinic acid]
< 1000	–	Oc1ccc(C(F)(F)F)c(-c2ccc3c(Nc4ccc(C(F)(F)F)cn4)ccnc3n2)n1 [compound 21, 5-Trifluoromethyl-6-[5-(5-trifluoromethyl-pyridin-2-ylamino)-[1,8]naphthyridin-2-yl]-pyridin-2-ol]

Continued, compound first:

SMILES	IC50 [1] [nM]	IC50 [2] [nM]
CC(C)N(CCNc1cc(C(F)(F)F)c(-c2cnc3c(Nc4ccc(C(F)(F)F)cn4)ccnc3n2)nn1)C(C)C [compound 66, N,N-diisopropyl-N′-[5-(trifluoromethyl)-6-(8-{[5-(trifluoromethyl)pyridin-2-yl]amino}pyrido[2,3-b]pyrazin-3-yl)pyridazin-3-yl]ethane-1,2-diamine]	< 1000	–
NC(=O)c1cnc(-c2cnc3c(Nc4cnc(C(F)(F)F)cn4)ccnc3n2)c(C(F)(F)F)c1 [compound 34, 5-(trifluoromethyl)-6-(8-{[5-(trifluoromethyl)pyrazin-2-yl]amino}pyrido[2,3-b]pyrazin-3-yl)nicotinamide]	< 1000	–
C[C@H](O)CNc1cc(C(F)(F)F)c(-c2cnc3c(Nc4ccc(C(F)(F)F)cn4)ccnc3n2)nn1 [compound 126, (S)-1-{[5-(trifluoromethyl)-6-(8-{[5-(trifluoromethyl)-pyridin-2-yl]amino}-pyrido[2,3-b]pyrazin-3-yl)pyridazin-3-yl]amino}propan-2-ol]	< 1000	–
CC(C)CN(C)c1cc(C(F)(F)F)c(-c2cnc3c(Nc4ccc(C(F)(F)F)cn4)ccnc3n2)nn1 [compound 145, 3-{6-[isobutyl(methyl)amino]-4-(trifluoromethyl)pyridazin-3-yl}-N-[5-(trifluoromethyl)-pyridin-2-yl]pyrido[2,3-b]pyrazin-8-amine]	< 1000	–
FC(F)(F)c1ccc(Nc2ccnc3nc(-c4nnc(NC5CC5)cc4C(F)(F)F)cnc23)nc1 [compound 104, 3-[6-(cyclopropylamino)-4-(trifluoromethyl)pyridazin-3-yl]-N-[5-(trifluoromethyl)-pyridin-2-yl]pyrido[2,3-b]pyrazin-8-amine]	< 1000	–
NC(=O)c1cnc(-c2cnc3c(Nc4ccc(C(F)(F)F)cn4)ccnc3n2)c(C(F)(F)F)c1 [Compound 4, 5-Trifluoromethyl-6-[8-(5-trifluoromethyl-pyridin-2-ylamino)-pyrido[2,3-b]pyrazin-3-yl]-nicotinamide]	–	< 1000
CCOc1nc(Nc2ccnc3nc(-c4ncc(C(N)=O)cc4C(F)(F)F)cnc23)ccc1C(F)(F)F [compound 48, 6-(8-{[6-ethoxy-5-(trifluoromethyl)pyridin-2-yl]amino}pyrido[2,3-b]pyrazin-3-yl)-5-(trifluoromethyl)nicotinamide]	< 1000	–
CCN(CCCO)c1cc(C(F)(F)F)c(-c2cnc3c(Nc4ccc(C(F)(F)F)cn4)ccnc3n2)nn1 [compound 177, 3-{ethyl[5-(trifluoromethyl)-6-(8-{[5-(trifluoromethyl)-pyridin-2-yl]amino}-pyrido[2,3-b]pyrazin-3-yl)-pyridazin-3-yl]amino}propan-1-ol]	< 1000	–
CCN(CC)C1CCN(c2cc(C(F)(F)F)c(-c3cnc4c(Nc5ccc(C(F)(F)F)cn5)ccnc4n3)nn2)CC1 [compound 80]	< 1000	–
CN(C)CC1CCCCN1c1cc(C(F)(F)F)c(-c2cnc3c(Nc4ccc(C(F)(F)F)cn4)ccnc3n2)nn1 (stereo not drawn) [compound 164, 3-[6-{2-[(dimethylamino)-methyl]piperidin-1-yl}-4-(trifluoromethyl)pyridazin-3-yl)-N-[5-(trifluoromethyl)-pyridin-2-yl]pyrido[2,3-b]pyrazin-8-amine]	< 1000	–
NC(=O)c1cnc(-c2cnc3c(Nc4cnc5ccccc5n4)ccnc3n2)c(C(F)(F)F)c1 [Compound 14, 6-(8-(Quinoxalin-2-ylamino)pyrido[2,3-b]pyrazin-3-yl)-5-(trifluoromethyl)nicotinamide]	–	< 1000
FC(F)(F)c1ccc(Nc2ccnc3nc(-c4nnc(NCCN5CCCCC5)cc4C(F)(F)F)cnc23)nc1 [compound 53, 3-{6-[(2-piperidin-1-ylethyl)amino]-4-(trifluoromethyl)pyridazin-3-yl}-N-[5-(trifluoromethyl)-pyridin-2-yl]pyrido[2,3-b]pyrazin-8-amine]	< 1000	–
NC(=O)c1cnc(-c2cnc3c(Nc4cnc5ccccc5n4)ccnc3n2)c(C(F)(F)F)c1 [compound 35, 6-[8-(quinoxalin-2-ylamino)pyrido[2,3-b]pyrazin-3-yl]-5-(trifluoromethyl)nicotinamide]	< 1000	–
